Data set [1] in a line: Potentiometric titrations, protonation constants. To be noted: 0.15 M NaCl, 298.1 K. It is filed as physicochemical. As for the experimental part:
FEM measurements. Potentiometric titrations were conducted at 298.1 ± 0.1 K using 0.15 M NaCl as the support electrolyte. The experimental procedure (burette, potentiometer, cell, stirrer, microcomputer, etc.) has been fully described elsewhere (E. García-Spain, M.-J. Ballester, F. Lloret, J.M. Moratal, J. Faus and A. Bianchi, J. Chem. Soc. Dalton Trans. 1988, 101-104). The FEM data acquisition was performed with the PASAT software (M. Fontanelli and M. Micheloni, Program for the automatic control of the microburette and the acquisition of the electromotor force readings (PASAT). Minutes of the 1st Spanish-Italian Congress of Thermodynamics of Metal Complexes, Peñíscola, Castellón, Spain, 1990). The reference electrode was an Ag/AgCl electrode in saturated KCI solution. The glass electrode was calibrated as a hydrogen ion concentration probe by titration of previously standardised amounts of HCl with CO2 free NaOH solutions and the equivalent point determined by Gran’s method ((a) G. Gran, Analyst 1952, 77, 661 -671; (b) F.J. Rossotti and H. Rossotti, J. Chem. Educ. 1965, 42, 375-378) providing the standard potential, Eº’, and the ionic product of water (pKw = 13.73 (1)).
Hyperquad software was used to calculate protonation and stability constants (P. Gans, A. Sabatini and A. Vacca, Talanta 1996, 43, 1739-1753). The pH range investigated was 2.5-11.0 and the concentration of the ligands varied from 1×10^-3 to 5×10^-3 M. The different titration curves for each system (at least two) were treated as a single set or as separate curves without significant variations in the values of the stability constants. Finally, the data sets were fused and treated simultaneously to give the final protonation constants (Table 1). For compounds 1, 7 and 9, two protonation constants have been detected in the pH range studied with values ranging from 5.51 to 9.68 logarithmic units. For the remaining compounds, three protonation constants have been measured with values ranging from 10.08 to 2.25 logarithmic units. All compounds have charge +1 at the physiological pH value of 7.4.

Data set [2] has as its system L. infantum amastigote forms. In words: In vitro activity against intracellular (amastigote) forms in macrophages. To be noted: for Selectivity Index (SI) L. infantum Amastigote forms: IC50 of macrophages / IC50 of parasite form; for IC50: Leishmania infantum, Macrophage, 72 h. It is filed as cell-based, Leishmania infantum. The text has this:
(§1) Methodology: Cultures of three Leishmania species, representative of the species causing each of the clinical forms of the disease, were used for these studies. Specifically, strains MCAN/ES/2001/UCM-1 O of L.infantum, isolated and characterised in Madrid from an infected dog; MHOM/BR/1975/M2904 of L.braziliensis, isolated in Brazil in a human case, and LCR-L 133 LRC of L.donovani. isolated in Jerusalem, Israel from a case of kala-azar […] (WHO Technical Reports Series 949. Geneva: WHO. March. The cultures of parasites come from an own collection which was prepared from a biobank project (Biobank and Characterisation Unit of Strains and Species of Trypanosomatids, Responsible for Human, Animal and Plant Pathologies, Cgl-2008-03687-E/Bos.), and are available on request.
(§2) For the study of the in vitro effect on intracellular forms of Leishmania, the experimental model designed by the group of the present inventors was used [Sánchez-Moreno. M. et al. Med. Chem. 2012, 55, 9900-9913; Sánchez-Moreno. M. et al. J. Antimicrob. Chemother. 2012, 67, 387-397]. The macrophages were detached from the culture flask where they were attached by dry blows. To do this, it was incubated in cold for 5 minutes and after that the flask was hit with the palm of the hand until the cells were detached from the flask. Then, they were passed to a 25 ml capacity steriling conical bottom flask (Deltalab) to centrifuge them at 120 g for 5 minutes, removing the supernatant and were counted in Neubauer’s chamber. Cells were suspended in RPMI medium at a concentration of 1×10^4 cells/well, then cultured in 24-well plates into which a 12 mm round slide had previously been placed into each well. For adherence, the cells were left 24 h at 37° C. in 5% CO2. Subsequently, the cells were infected in vitro by placing Leishmania cells at the rate of 10 parasites/macrophage according to [Sánchez-Moreno. M et al. Med. Chem. 2011, 54, 970-979]. […] The products were allowed to act for 72 hours of incubation.
(§3) After that time, the crystals were removed and fixed with methanol on a slide and allowed to dry, after which DPX microscopy mounting medium (Panreac®) was added to it. Once the preparations had been mounted, they were dyed with Giemsa by diluting Azur-Eosin-Methylene Blue solution according to Giemsa DC (Code 251338) with Sorensen buffer (1:10 dilution). The preparations were covered and allowed to colour for 20 minutes, after which they were washed with distilled water and then allowed to drain and dry vertically. Finally, the amastigote forms were counted with the aim of immersion in a total of 200 cells.

For data set [3], the system named is L. braziliensis amastigote forms. The data set is described as above. The settings on record: for Selectivity Index (SI) L. brazilensis Amastigote forms: IC50 of macrophages / IC50 of parasite form; for IC50: Leishmania braziliensis, Macrophage, 72 h. The data set is classed as cell-based, Leishmania braziliensis.
From the text: as §1, §2, §3

Data set [4] relates to L. donovani amastigote forms. Described as above. The data set is classed as cell-based, Leishmania donovani. To be noted: for Selectivity Index (SI) L. donvovani Amastigote forms: IC50 of macrophages / IC50 of parasite form; for IC50: Leishmania donovani, Macrophage, 72 h.
From the text: as §1, §2, §3

Data set [5] relates to J774.2 macrophages. In words: Macrophage toxicity by flow cytometry. It is filed as cell-based. To be noted: J774.2 macrophages, 72 h of culture. As to the method:
Macrophage toxicity: this study used the experimental model designed by the group of inventors [I. Ramírez-Macías. et. al. J. Antimicrob. Chemother. 2011, 66(4): 813-819] wherein flow cytometry is used. Briefly, macrophages from line J774.2 (ECACC number 91051511, obtained from a BALB/c female […] tumour in 1968) were deposited in a steriling tube and centrifuged at 120 g for 5 minutes. The supernatant was discarded and the cells were resuspended in MEM + Glutamine medium with 20% SBF (fetal bovine serum). 1×10^4 cells per well were then deposited from a 24-well titration plate and incubated for 24-48 h at 37° C. in a humid atmosphere enriched with 5% CO2 to fix them. […] After 72 h of incubation, the samples were prepared for reading on a flow cytometer. Specifically, 100 µl of propidium iodide solution (100 µg/ml) was added to each well and incubated for 10 min at 28° C. in the dark. Subsequently, 100 µl/well of fluorescein diacetate (FDA) (Sigma Chemical Co) in solution (100 ng/mL) was added and incubation was repeated under the same conditions for 10 minutes. Cells were recovered by centrifugation at 400 g for 10 minutes and washing the precipitate with PBS. Finally, the results were analysed in a FACS Vantage flow cytometer (Becton Dickinson) taking into account that the cells with the plasma membrane intact emit green colour as the esterases act on the FDA, while the cells that have lost the integrity of the membrane and are not viable, emit in the range close to 580 nm by penetrating the propidium iodide by passive diffusion and specifically binding to the nucleic acids thereof. Thus, to calculate the percentage of viability, the number of dead cells compared to controls was taken into account.
A general note: A flow cytometer gives signals particle by particle.

In general, IC50 refers to the concentration needed to halve the response being measured. Read a high IC50 as weaker potency. Consider `CN(C)CCNCc1ccccn1` [Compound 4, 1-(2-pyridyl)-5-methyl-2,5-diazahexane], for which, in data set [1], the “Log β” value was 16.88(2), the “Logarithm of the protonation constant H2L+H ⇌ H3L” value is 2.25(2), the “Logarithm of the protonation constant H+L ⇌ HL” value is listed as 9.06(1) ^b and the “Logarithm of the protonation constant HL+H ⇌ H2L” value was 5.58(1). In data set [2], the “Selectivity Index (SI) L. infantum Amastigote forms” value is 37 and the IC50 is 33.6 ± 1.4 µM. Further, in data set [3], the “Selectivity Index (SI) L. brazilensis Amastigote forms” value was 40 and the IC50 is 30.8 ± 1.3 µM. Also, in data set [4], the “Selectivity Index (SI) L. donvovani Amastigote forms” value turned out to be 32 and half-maximal inhibition (IC50) was put at 38.8 ± 1.4 µM. In addition, in data set [5], the IC50 stood at 1240 ± 42.7 µM.

For the compound `CNCCNCc1ccc2ccccc2n1` [Compound 9, 1-{2-quinolyl)-2,5-diazahexane], in data set [1], the “Log β” value is 15.10(3), the “Logarithm of the protonation constant H+L ⇌ HL” value is recorded as 9.68(2) and the “Logarithm of the protonation constant HL+H ⇌ H2L” value is given as 5.41(2). For the same compound, in data set [2], the “Selectivity Index (SI) L. infantum Amastigote forms” value was determined as 25 and the IC50 was found to be 14.3 ± 0.6 µM. In data set [3], the “Selectivity Index (SI) L. brazilensis Amastigote forms” value is on record as 13 and half-maximal inhibition (IC50) was put at 26.5 ± 0.9 µM. Besides, in data set [4], the “Selectivity Index (SI) L. donvovani Amastigote forms” value worked out at 11 and 31.9 ± 1.1 µM corresponded to half-maximal inhibition (IC50). The compound also displayed an IC50 in data set [5] of 354 ± 31.7 µM.

As for `CN(C)CCNCc1ccc2ccccc2n1` [Compound 7], in data set [1], the “Log β” value was 14.63 (1), the “Logarithm of the protonation constant H+L ⇌ HL” value was 9.17(1) and the “Logarithm of the protonation constant HL+H ⇌ H2L” value is reported as 5.45(1). For the same compound, in data set [2], the “Selectivity Index (SI) L. infantum Amastigote forms” value is recorded as 9 and half-maximal inhibition (IC50) required 49.7 ± 3.6 µM. In data set [3], the “Selectivity Index (SI) L. brazilensis Amastigote forms” value stood at 11 and the 50% inhibitory concentration (IC50) came to 38.9 ± 2.7 µM. In data set [4], the “Selectivity Index (SI) L. donvovani Amastigote forms” value was 11 and the IC50 is 38.9 ± 3.2 µM. Further, in data set [5], the IC50 was 442 ± 31.6 µM.

With `CNCCNCc1ccccn1` [Compound 1, 1-{2-pyridyl}-2,5-diazahexane], in data set [1], the “Log β” value is reported as 15.25(1), the “Logarithm of the protonation constant H+L ⇌ HL” value was 9.63(1) ^b and the “Logarithm of the protonation constant HL+H ⇌ H2L” value is recorded as 5.62(1). Further, in data set [2], the “Selectivity Index (SI) L. infantum Amastigote forms” value is recorded as 20 and the IC50 was 0.7 ± 0.1 µM. Further, in data set [3], the “Selectivity Index (SI) L. brazilensis Amastigote forms” value stood at 2 and the IC50 came to 5.7 ± 0.3 µM. For the same compound, in data set [4], the “Selectivity Index (SI) L. donvovani Amastigote forms” value is recorded as 1 and the IC50 came to 8.9 ± 0.9 µM. In data set [5], this compound had an IC50 of 13.7 ± 3.1 µM.

Consider `CNCCNCc1ccncc1` [Compound 3, 1-{4-pyridyl)-2,5-diazahexane], for which, in data set [1], the “Log β” value was 18.60(1), the “Logarithm of the protonation constant H2L+H ⇌ H3L” value was 3.390(6), the “Logarithm of the protonation constant H+L ⇌ HL” value is recorded as 9.503(5) and the “Logarithm of the protonation constant HL+H ⇌ H2L” value is 5.713(5). In data set [2], the “Selectivity Index (SI) L. infantum Amastigote forms” value is given as 16 and the IC50 was 13.9 ± 1 µM. Besides, in data set [3], the “Selectivity Index (SI) L. brazilensis Amastigote forms” value was 8 and the IC50 stood at 27.9 ± 1.2 µM. Besides, half-maximal inhibition in data set [4] (IC50) required 5.1 ± 0.3 µM. This compound also gave an IC50 in data set [5] of 223 ± 17.3 µM.

As to `CN(C)CCNCc1ccncc1` [Compound 6], in data set [1], the “Log β” value is listed as 17.22 (1), the “Logarithm of the protonation constant H2L+H ⇌ H3L” value is on record as 2.956(6), the “Logarithm of the protonation constant H+L ⇌ HL” value is recorded as 8.865(3) and the “Logarithm of the protonation constant HL+H ⇌ H2L” value is reported as 5.407(3). Further, in data set [2], the “Selectivity Index (SI) L. infantum Amastigote forms” value came out at 21 and the IC50 was found to be 23.6 ± 1.7 µM. Besides, in data set [3], the “Selectivity Index (SI) L. brazilensis Amastigote forms” value worked out at 17 and the midpoint of inhibition, the IC50, lay at 29.7 ± 2.5 µM. Further, the IC50 in data set [4] was 11.5 ± 1.3 µM. The compound further returned an IC50 in data set [5] of 497 ± 21.5 µM.
